From PMC9649909, “Wnt-pathway inhibitors with selective activity against triple-negative breast cancer: From thienopyrimidine to quinazoline inhibitors” (Frontiers in Pharmacology, 2022)
Entries after “also recorded” stand apart in the source; their conditions may differ. Like-named read-outs stand apart in the source and are kept apart here.

Tests used:
[1] = tested on: β-catenin-dependent Wnt-pathway; assay: TopFlash luciferase reporter assay, CHIR99021-stimulated, HCC1395; assay type: cell-based; conditions: Homo sapiens, HCC1395, HCC1395, stimulation with CHIR99021 (GSK3β inhibitor); for Emax: read-out: HCC1395 TopFlash Efficacy; for IC50: read-out: HCC1395 TopFlash IC50
[2] = tested on: β-catenin-dependent Wnt-pathway; assay: TopFlash luciferase reporter assay, Wnt3a-stimulated, HCC1395; assay type: cell-based; conditions: Homo sapiens, stimulation with Wnt3a
Description: The advantage of our platform lies in its ability to discriminate between inhibitors of the β-catenin-dependent Wnt signaling acting at upstream vs. downstream levels of the pathway, by stimulating the pathway at the different levels either with Wnt3a or with a GSK3β inhibitor, like CHIR99021 ([Shaw et al., 2019b]). Both stimulations abolish formation of the destruction complex, a multiprotein complex consisting of Axin, adenomatous polyposis coli (APC), glycogen synthase kinase three beta (GSK3β), and casein kinase one alpha (CK1α). Upon inactivation of the complex, β-catenin accumulates in the cytoplasm and translocates into the nucleus where it interacts with transcription factors. These downstream events are quantified by a Luciferase transcription-based readout assay (TopFlash assay).

[3] = Cytotoxicity by Renilla luciferase under CMV promoter; conditions: human
[4] = tested on: HCC1395 cells; assay: as above
[5] = tested on: BT-20 TNBC cell line; assay: MTT survival assay BT-20; assay type: cell-based; conditions: Homo sapiens, BT-20
[6] = tested on: HCC1395 TNBC cell line; assay: MTT survival assay HCC1395; assay type: cell-based; conditions: Homo sapiens, HCC1395; Table S2; read-out: MTT HCC-1395 IC50
[7] = tested on: MDA-MB-231 TNBC cell line; assay: MTT survival assay MDA-MB-231; assay type: cell-based; conditions: Table S2; for IC50: Homo sapiens, MDA-MB-231, read-out: MTT MDA-MB-231 IC50
[8] = tested on: HCC1806 TNBC cell line; assay: MTT survival assay HCC1806; assay type: cell-based; conditions: Homo sapiens, HCC1806
[9] = tested on: MDA-MB-468 TNBC cell line; assay: MTT survival assay MDA-MB-468; assay type: cell-based; conditions: Homo sapiens, MDA-MB-468; Table S2
[10] = tested on: non-cancerous breast epithelial cell line MCF10a; assay: MTT survival assay MCF10a; assay type: cell-based; conditions: for IC50: Homo sapiens, MCF-10A
[11] = tested on: panel of luciferase reporters with basal activities in HCC1395 cells; assay: Panel of other luciferase transcriptional reporters in HCC1395; assay type: cell-based; conditions: HCC1395, 5 µM
Method: Compound 5d (IC50 = 0.6 µM, Table 2) was used as a representative to analyze the selectivity of the chemotype towards the Wnt-pathway, by profiling it against a panel of different transcriptional reporters with significant basal activities in HCC1395 cells (Figure 5). […] We thus conclude that the anti-proliferative effect of the compound is related exclusively to the suppressed Wnt signaling.

[12] = Table S2, read-out: MTT BT-20 IC50
[13] = Table S2, read-out: MTT HCC1806 IC50
[14] = Table S2, read-out: MTT MCF10 IC50

## c1ccc(CNc2ncnc3sccc23)cc1 [Compound 4a, N-benzylthieno[2,3-d]pyrimidin-4-amine]
[1]
  Emax: 72%
  IC50: 8.47 µM
[2]
  IC50: 8.31 µM
[3]
  IC50: > 50 µM
[4]; HCC1395
  Cytotoxicity (Renilla) in words: not toxic; also recorded: no cytotoxic activity
[4]; Table S2
  GSK HCC1395 Renilla Comments: Non-toxic
[5]; [12]
  IC50: 16.3 µM
[6]
  IC50: 2.52 µM
[7]
  IC50: 19.2 µM
  MTT MDA-MB-231 plateau: 100
[8]; [13]
  IC50: 2.33 µM
[9]
  IC50: 2.13 µM
[10]; [14]
  IC50: > 10 µM
[10]; Table S2
  MTT MCF10 Comments: Inactive

## CC(Nc1ncnc2sccc12)c1ccc(Cl)cc1 (centres unmarked) [Compound 5d, N-(1-(4-chlorophenyl)ethyl)thieno[2,3-d]pyrimidin-4-amine]
[1]
  Emax: 55.4 ± 24.3%
  IC50: 0.6 ± 0.33 µM
[3]; HCC1395 Cytotoxicity IC50
  IC50: 24 ± 4.98 µM
[4]; human
  HCC1395 Cytotoxicity Efficacy: 100 ± 0%
[5]; Figure 3B heatmap, no activity up to maximal tested concentration, read-out: IC50, μM (BT20)
  IC50: > 50 µM
[5]; [12]
  IC50: 6.89 µM
[6]
  IC50: 0.39 µM
[7]
  IC50: > 10 µM
  MTT MDA-MB-231 Comments: Inactive
[8]; Figure 3B heatmap, read-out: IC50, μM (HCC1806)
  IC50: > 50 µM
[8]; [13]
  IC50: 9.12 µM
[9]
  IC50: 1.67 µM
[10]; Figure 3B heatmap, read-out: IC50, μM (MCF10)
  IC50: > 10 µM
[10]; [14]
  IC50: 6.48 µM
[11]
  inhibition of other signaling pathway reporters: none other signaling pathways are affected; also recorded: no inhibition
